Measured values taken from patent publication EP0038629A1, “Virazole derivatives, process for their preparation and use as antiviral agents” (priority 1980, dated 1981).
Where two headings read alike, the source gives them in different places. Marks after values point to notes of the source that are not given here.

System: mouse adapted strain of the A2/HK/l/68 virus
Conditions: 10^-4 mole/kg doses twice daily for 3 days; for Weight Change Day 0 -Day 3: dosing period, indication of toxicity

Row | Molecule | Day 8 Means Body Wt. (Expt. 1, subcutaneous) [gm] | Day 8 Means Lung WT./ Body Wt. Ratio x 100 (Expt. 1, subcutaneous) | Day 8 Means Lung Wt. (Expt. 1, subcutaneous) [mg] | Weight Change Day 3 -Day 8 (Expt. 1, subcutaneous) | Weight Change Day 0 -Day 3 (Expt. 1, subcutaneous) | Day 8 Means Body Wt. (Expt. 2, subcutaneous) [gm] | Day 8 Means Lung WT./ Body Wt. Ratio x 100 (Expt. 2, subcutaneous) | Day 8 Means Lung Wt. (Expt. 2, subcutaneous) [mg] | Weight Change Day 3 -Day 8 (Expt. 2, subcutaneous) | Weight Change Day 0 -Day 3 (Expt. 2, subcutaneous) | Day 8 Means Body Wt. (Expt. 3, oral) [gm] | Day 8 Means Lung WT./ Body Wt. Ratio x 100 (Expt. 3, oral) | Day 8 Means Lung Wt. (Expt. 3, oral) [mg] | Weight Change Day 3 -Day 8 (Expt. 3, oral) | Weight Change Day 0 -Day 3 (Expt. 3, oral)
1 | 1-[β-D-(5'-succinyl-2',3'-carbonyl)ribofuranosyl]-3-carbamoyl-1,2,4-triazole amantadine salt [Compound 6] | 22.4 | 1.25 | 273 | +0.9 | +2.4 | 21.2 | 1.30** | 266 | +0.4 | +2.1 | 22.5 | 1.25** | 275 | +0.7 | +2.6
2 | NC(=O)c1ncn([C@@H]2O[C@H](CO)[C@@H](O)[C@H]2O)n1 [Compound 1, 1-β-D-ribofuranosyl-3-carbamoyl-1,2,4-triazole, reference compound] | 20.7 | 1.16 | 238 | +0.8 | +0.7* | 20.5 | 1.36 | 291 | +1.8 | +0.2* | 19.1 | 1.40** | 285 | -0.8 | +0.9*
